# Test results reported in patent publication US9346798B2, “Dihydrobenzoxazine and tetrahydroquinoxaline sodium channel inhibitors” (AMGEN INC., priority 2012, dated 2016).
# Target: Nav 1.7 (Homo sapiens (Human), UniProt Q15858)
# Test: Nav 1.7 in vitro PX assay, PatchXpress whole cell voltage clamp
# Type: cell-based
# Settings: HEK 293 cells stably transfected with human Nav1.7; partially inactivated state (20 to 50% inactivation)
# Protocol: Nav 1.7 In Vitro PX Assay
# HEK 293 cells stably transfected with human Nav1.7 were recorded in whole cell voltage clamp mode with the PatchXpress automated electrophysiology system (Molecular Devices, LLC, Sunnyvale, Calif.). Compound effects were measured on a partially inactivated state of the sodium channel. Cells were clamped to a holding potential yielding 20 to 50% inactivation. To elicit sodium current, channels were activated by pulsing to −10 mV for 20 msec. This voltage protocol was repeated at a rate of 0.1 Hz throughout the experiment. A single concentration of test compound was applied to cells for a duration of 3 minutes. Peak sodium current was measured at the end of the compound addition period to determine percent inhibition. Three to five cells were tested per concentration, and IC50 curves were fitted to percent inhibition as a function of concentration.
# Chain of Nav 1.7 (Q15858 whole entry): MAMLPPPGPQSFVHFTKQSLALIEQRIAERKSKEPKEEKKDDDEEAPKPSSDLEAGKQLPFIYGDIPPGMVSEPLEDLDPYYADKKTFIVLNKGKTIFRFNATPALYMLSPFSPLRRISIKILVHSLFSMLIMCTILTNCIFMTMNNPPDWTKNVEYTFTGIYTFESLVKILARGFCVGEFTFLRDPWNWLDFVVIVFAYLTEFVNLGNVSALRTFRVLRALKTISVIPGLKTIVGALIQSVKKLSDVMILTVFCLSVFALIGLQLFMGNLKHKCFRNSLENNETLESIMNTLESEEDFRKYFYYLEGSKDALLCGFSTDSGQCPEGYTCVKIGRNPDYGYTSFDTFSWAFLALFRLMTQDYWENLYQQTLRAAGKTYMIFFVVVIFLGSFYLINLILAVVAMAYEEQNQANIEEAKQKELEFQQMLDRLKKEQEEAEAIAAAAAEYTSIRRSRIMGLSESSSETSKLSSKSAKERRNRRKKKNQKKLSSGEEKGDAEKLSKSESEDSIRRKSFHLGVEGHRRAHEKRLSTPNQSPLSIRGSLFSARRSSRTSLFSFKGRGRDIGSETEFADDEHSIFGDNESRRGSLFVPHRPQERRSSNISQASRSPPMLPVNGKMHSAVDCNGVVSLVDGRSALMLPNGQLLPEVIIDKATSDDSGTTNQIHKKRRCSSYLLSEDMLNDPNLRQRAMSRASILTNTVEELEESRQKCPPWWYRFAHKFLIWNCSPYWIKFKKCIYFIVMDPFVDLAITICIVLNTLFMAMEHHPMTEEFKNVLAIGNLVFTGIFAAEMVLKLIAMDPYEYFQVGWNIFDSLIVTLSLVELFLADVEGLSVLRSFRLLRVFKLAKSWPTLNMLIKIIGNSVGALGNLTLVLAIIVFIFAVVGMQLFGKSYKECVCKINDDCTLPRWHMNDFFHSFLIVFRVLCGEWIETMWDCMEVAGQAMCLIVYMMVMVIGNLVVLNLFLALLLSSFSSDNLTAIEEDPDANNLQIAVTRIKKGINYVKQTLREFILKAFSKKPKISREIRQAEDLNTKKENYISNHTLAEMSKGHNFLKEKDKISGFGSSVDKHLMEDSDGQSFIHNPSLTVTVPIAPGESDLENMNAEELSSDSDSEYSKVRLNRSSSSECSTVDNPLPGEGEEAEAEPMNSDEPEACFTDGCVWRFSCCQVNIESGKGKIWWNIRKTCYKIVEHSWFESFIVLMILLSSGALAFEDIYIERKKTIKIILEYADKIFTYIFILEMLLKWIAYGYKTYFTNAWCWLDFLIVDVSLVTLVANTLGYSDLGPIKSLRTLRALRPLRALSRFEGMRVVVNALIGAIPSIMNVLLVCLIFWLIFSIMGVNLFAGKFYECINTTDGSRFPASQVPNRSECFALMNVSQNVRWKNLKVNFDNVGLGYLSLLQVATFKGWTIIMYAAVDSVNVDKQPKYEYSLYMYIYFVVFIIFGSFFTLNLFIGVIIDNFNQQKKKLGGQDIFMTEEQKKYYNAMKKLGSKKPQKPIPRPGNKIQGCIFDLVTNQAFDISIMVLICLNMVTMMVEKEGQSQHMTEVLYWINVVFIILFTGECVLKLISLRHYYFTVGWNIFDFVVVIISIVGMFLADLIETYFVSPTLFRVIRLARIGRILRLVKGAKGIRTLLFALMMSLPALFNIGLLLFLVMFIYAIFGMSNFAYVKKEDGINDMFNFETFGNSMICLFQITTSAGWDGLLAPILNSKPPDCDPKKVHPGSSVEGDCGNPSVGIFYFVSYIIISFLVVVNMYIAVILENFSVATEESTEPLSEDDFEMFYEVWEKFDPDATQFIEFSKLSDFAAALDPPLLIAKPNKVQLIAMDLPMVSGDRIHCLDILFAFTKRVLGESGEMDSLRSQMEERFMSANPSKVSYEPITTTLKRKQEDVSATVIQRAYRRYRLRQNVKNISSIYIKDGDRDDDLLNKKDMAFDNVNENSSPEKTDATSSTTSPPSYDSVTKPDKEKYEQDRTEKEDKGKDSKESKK
row,SMILES,IC50
1,"COc1cc(C(F)(F)F)ccc1N1C(=O)C(C)Oc2cc(S(=O)(=O)Nc3nccs3)ccc21 (racemic) [Example 263, (+/−)-4-(2-methoxy-4-(trifluoromethyl)phenyl)-2-methyl-3-oxo-N-(thiazol-2-yl)-3,4-dihydro-2H-benzo[b][1,4]oxazine-7-sulfonamide]",0.457 µM
2,"COc1cc(C(F)(F)F)ccc1N1CCOc2cc(S(=O)(=O)Nc3nccs3)c(C#N)cc21 [Example 213, 6-Cyano-4-(2-Methoxy-4-(Trifluoromethyl)Phenyl)-N-(Thiazol-2-Yl)-3,4-Dihydro-2H-Benzo[B][1,4]Oxazine-7-Sulfonamide]",0.455 µM
3,"COc1ccc(C#N)cc1N1CCOc2cc(S(=O)(=O)Nc3nccs3)ccc21 [Example 225, 4-(5-Cyano-2-Methoxyphenyl)-N-(Thiazol-2-Yl)-3,4-Dihydro-2H-Benzo[B][1,4]Oxazine-7-Sulfonamide]",0.303 µM
4,"COCCOc1ccccc1N1CCOc2cc(S(=O)(=O)Nc3nccs3)ccc21 [Example 229, 4-(2-(2-Methoxyethoxy)Phenyl)-N-(Thiazol-2-Yl)-3,4-Dihydro-2H-Benzo[B][1,4]Oxazine-7-Sulfonamide]",3.16 µM
5,"CS(=O)(=O)c1ccccc1N1CCOc2cc(S(=O)(=O)Nc3nccs3)ccc21 [Example 230, 4-(2-(Methylsulfonyl)Phenyl)-N-(Thiazol-2-Yl)-3,4-Dihydro-2H-Benzo[B][1,4]Oxazine-7-Sulfonamide]",33.6 µM
6,"O=S(=O)(Nc1nccs1)c1ccc2c(c1)OCCN2c1ccccc1-c1cncnc1 [Example 231, 4-(2-(Pyrimidin-5-Yl)Phenyl)-N-(Thiazol-2-Yl)-3,4-Dihydro-2H-Benzo[B][1,4]Oxazine-7-Sulfonamide]",19.8 µM
7,"COc1cc(C#N)ccc1N1C(=O)COc2cc(S(=O)(=O)Nc3nccs3)ccc21 [Example 232, 4-(4-Cyano-2-Methoxyphenyl)-3-Oxo-N-(Thiazol-2-Yl)-3,4-Dihydro-2H-Benzo[B][1,4]Oxazine-7-Sulfonamide]",2.01 µM
8,"COc1cc(Cl)ccc1N1C(=O)COc2cc(S(=O)(=O)Nc3nccs3)ccc21 [Example 233, 4-(4-Chloro-2-Methoxyphenyl)-3-Oxo-N-(Thiazol-2-Yl)-3,4-Dihydro-2H-Benzo[B][1,4]Oxazine-7-Sulfonamide]",0.327 µM
9,"N#Cc1cc(C(F)(F)F)ccc1N1C(=O)COc2cc(S(=O)(=O)Nc3nccs3)ccc21 [Example 234, 4-(2-Cyano-4-(Trifluoromethyl)Phenyl)-3-Oxo-N-(Thiazol-2-Yl)-3,4-Dihydro-2H-Benzo[B][1,4]Oxazine-7-Sulfonamide]",1.45 µM
10,"COc1ccccc1N1C(=O)COc2cc(S(=O)(=O)Nc3nccs3)ccc21 [Example 235, 4-(2-Methoxyphenyl)-3-Oxo-N-(Thiazol-2-Yl)-3,4-Dihydro-2H-Benzo[B][1,4]Oxazine-7-Sulfonamide]",0.896 µM
11,"COc1ccc(C(F)(F)F)cc1N1C(=O)COc2cc(S(=O)(=O)Nc3nccs3)ccc21 [Example 236, 4-(2-Methoxy-5-(Trifluoromethyl)Phenyl)-3-Oxo-N-(Thiazol-2-Yl)-3,4-Dihydro-2H-Benzo[B][1,4]Oxazine-7-Sulfonamide]",0.513 µM
12,"COc1ccccc1N1CCOc2cc(S(=O)(=O)Nc3ncns3)ccc21 [Example 238, 4-(2-Methoxyphenyl)-N-(1,2,4-Thiadiazol-5-Yl)-3,4-Dihydro-2H-Benzo[B][1,4]Oxazine-7-Sulfonamide]",0.135 µM
13,"O=C1COc2cc(S(=O)(=O)Nc3nccs3)ccc2N1c1ccc(C(F)(F)F)cc1Br [Example 239, 4-(2-Bromo-4-(Trifluoromethyl)Phenyl)-3-Oxo-N-(Thiazol-2-Yl)-3,4-Dihydro-2H-Benzo[B][1,4]Oxazine-7-Sulfonamide]",0.35 µM
14,"O=C1COc2cc(S(=O)(=O)Nc3nccs3)ccc2N1c1ccc(C(F)(F)F)cc1F [Example 240, 4-(2-Fluoro-4-(Trifluoromethyl)Phenyl)-3-Oxo-N-(Thiazol-2-Yl)-3,4-Dihydro-2H-Benzo[B][1,4]Oxazine-7-Sulfonamide]",11.9 µM
